The record followed here is PubChem BioAssay AID342 (DTP/NCI, 2004).

This assay concerns Swiss mice, Sarcoma 180 sc, mean tumor weight T/C. As to the kind of experiment: NCI In Vivo Anticancer Drug Screen. Data for tumor model Sarcoma 180 (subcutaneous) in Swiss mice. The following applies: endpoint: mean tumor weight, higher = larger tumour. In short, it runs like this:
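Mice bearing transplanted tumors were treated with compound, and survival or tumor size was measured. Values are expressed as the treated-group measurement (T) divided by the vehicle-treated control measurement (C).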

Where [1] appears, read: dose: 50.0 mg/kg/injection, schedule: Q01DX007 (ip), vehicle: carboxymethylcellulose (CMC).

SMILES strings stand for the structures.

Usually T/C stands for the ratio of treated to control.

In the case of `O=c1[nH]c(=O)n(C2CC(O)C(CO)O2)cc1F` (configuration not stated), the T/C reads like this: (dose: 2.0 mg/kg/injection, schedule: Q01DX007 (ip), vehicle: carboxymethylcellulose (CMC)) 97 % of control; (dose: 4.0 mg/kg/injection, schedule: Q01DX007 (ip), vehicle: carboxymethylcellulose (CMC)) 108 % of control; (dose: 8.0 mg/kg/injection, schedule: Q01DX007 (ip), vehicle: carboxymethylcellulose (CMC)) 97 % of control; (dose: 10.0 mg/kg/injection, schedule: Q#A X014 (ip), vehicle: carboxymethylcellulose (CMC)) 27 % of control; (dose: 12.5 mg/kg/injection, schedule: Q#A X014 (ip), vehicle: carboxymethylcellulose (CMC)) 28 % of control; (dose: 16.0 mg/kg/injection, schedule: Q01DX007 (ip), vehicle: carboxymethylcellulose (CMC)) 94 % of control. The T/C is, setting by setting: (dose: 20.0 mg/kg/injection, schedule: Q01DX007 (ip), vehicle: saline) 119 % of control; (dose: 20.0 mg/kg/injection, schedule: Q#A X014 (ip), vehicle: carboxymethylcellulose (CMC)) 14 % of control; (dose: 25.0 mg/kg/injection, schedule: Q#A X014 (ip), vehicle: carboxymethylcellulose (CMC)) 10 % of control; (dose: 40.0 mg/kg/injection, schedule: Q01DX007 (ip), vehicle: saline) 86 % of control; (dose: 40.0 mg/kg/injection, schedule: Q#A X014 (ip), vehicle: carboxymethylcellulose (CMC)) 4 % of control; (dose: 80.0 mg/kg/injection, schedule: Q01DX007 (ip), vehicle: carboxymethylcellulose (CMC)) 29 % of control. In addition, the T/C reads like this: (dose: 80.0 mg/kg/injection, schedule: Q01DX007 (ip), vehicle: saline) 109 % of control; (dose: 80.0 mg/kg/injection, schedule: Q#A X014 (ip), vehicle: carboxymethylcellulose (CMC)) 15 % of control; (dose: 106.6 mg/kg/injection, schedule: Q01DX007 (ip), vehicle: carboxymethylcellulose (CMC)) 7 % of control; (dose: 128.0 mg/kg/injection, schedule: Q01DX007 (ip), vehicle: carboxymethylcellulose (CMC)) 8 % of control; (dose: 160.0 mg/kg/injection, schedule: Q01DX007 (ip), vehicle: carboxymethylcellulose (CMC)) 5 % of control; (dose: 160.0 mg/kg/injection, schedule: Q01DX007 (ip), vehicle: saline) 56 % of control.
Consider `C[C@]12CCc3c(ccc4cc(O)ccc34)[C@@H]1C[C@H](O)[C@@H]2O`, for which the T/C is, setting by setting: (dose: 2.5 mg/kg/injection, schedule: Q01DX007 (sc), vehicle: steriod suspending solution) 90 % of control; (dose: 10.0 mg/kg/injection, schedule: Q01DX007 (sc), vehicle: steriod suspending solution) 95 % of control.
Consider `NC(=O)Oc1ccccc1`, for which the T/C by setting is: (dose: 220.0 mg/kg/injection, schedule: Q01DX007 (ip), vehicle: other) 69 % of control; (dose: 330.0 mg/kg/injection, schedule: Q01DX007 (ip), vehicle: other) 84 % of control; (dose: 492.0 mg/kg/injection, schedule: Q01DX007 (ip), vehicle: other) 65 % of control.
Regarding `COC(=O)c1ccccc1NC(c1ccccn1)c1ccc2cccnc2c1O` (configuration not stated), the T/C is 115 % of control (dose: 62.0 mg/kg/injection, schedule: Q01DX007 (ip), vehicle: carboxymethylcellulose (CMC)); 104 % of control (dose: 125.0 mg/kg/injection, schedule: Q01DX007 (ip), vehicle: carboxymethylcellulose (CMC)); 88 % of control (dose: 250.0 mg/kg/injection, schedule: Q01DX007 (ip), vehicle: carboxymethylcellulose (CMC)); 88 % of control (dose: 500.0 mg/kg/injection, schedule: Q01DX007 (ip), vehicle: carboxymethylcellulose (CMC)).
For the compound `CC(=O)Nc1c(Cl)c(Cl)c2c(c1Cl)Cc1cc(Br)ccc1-2`, the T/C was 75 % of control (dose: 3.0 mg/kg/injection, schedule: Q01DX007 (ip), vehicle: carboxymethylcellulose (CMC)); 74 % of control (dose: 6.0 mg/kg/injection, schedule: Q01DX007 (ip), vehicle: carboxymethylcellulose (CMC)); 38 % of control (dose: 6.0 mg/kg/injection, schedule: Q01DX007 (ip), vehicle: other); 69 % of control (dose: 9.0 mg/kg/injection, schedule: Q01DX007 (ip), vehicle: other); 45 % of control (dose: 12.0 mg/kg/injection, schedule: Q01DX007 (ip), vehicle: carboxymethylcellulose (CMC)); 46 % of control (dose: 13.0 mg/kg/injection, schedule: Q01DX007 (ip), vehicle: other). Further, the T/C runs as follows: (dose: 19.0 mg/kg/injection, schedule: Q01DX007 (ip), vehicle: other) 56 % of control; (dose: 25.0 mg/kg/injection, schedule: Q01DX007 (ip), vehicle: carboxymethylcellulose (CMC)) 63 % of control; (dose: 28.0 mg/kg/injection, schedule: Q01DX007 (ip), vehicle: other) 35 % of control; (dose: 41.0 mg/kg/injection, schedule: Q01DX007 (ip), vehicle: other) 62 % of control; under setting [1], 49 % of control; (dose: 63.0 mg/kg/injection, schedule: Q01DX007 (ip), vehicle: other) 33 % of control. For the same compound, the T/C (dose: 100.0 mg/kg/injection, schedule: Q01DX007 (ip), vehicle: carboxymethylcellulose (CMC)) is 30 % of control.
For `CC1OC2CC(=O)OC2C2=C1C(=O)c1c(O)c3c(c(O)c1C2=O)C1CC(O)C3(O)C(C)O1` (configuration not stated), the T/C was 114 % of control (dose: 0.01 mg/kg/injection, schedule: Q01DX007 (ip), vehicle: saline); 112 % of control (dose: 0.03 mg/kg/injection, schedule: Q01DX007 (ip), vehicle: saline); 112 % of control (dose: 0.1 mg/kg/injection, schedule: Q01DX007 (ip), vehicle: saline); 113 % of control (dose: 0.2 mg/kg/injection, schedule: Q01DX007 (ip), vehicle: saline); 116 % of control (dose: 0.4 mg/kg/injection, schedule: Q01DX007 (ip), vehicle: saline); 99 % of control (dose: 0.8 mg/kg/injection, schedule: Q01DX007 (ip), vehicle: saline). The T/C was 94 % of control (dose: 1.6 mg/kg/injection, schedule: Q01DX007 (ip), vehicle: saline); 79 % of control (dose: 6.4 mg/kg/injection, schedule: Q01DX007 (ip), vehicle: saline); 88 % of control (dose: 12.0 mg/kg/injection, schedule: Q01DX007 (ip), vehicle: saline); 64 % of control (dose: 12.8 mg/kg/injection, schedule: Q01DX007 (ip), vehicle: saline); 61 % of control (dose: 24.0 mg/kg/injection, schedule: Q01DX007 (ip), vehicle: saline).
In the case of `C[C@H]1/C(=C/C(=O)OCCN(C)C)CC[C@H]2[C@H]1C(=O)C[C@H]1C(C)(C)[C@@H](O)CC[C@]21C`, the T/C (dose: 1.88 mg/kg/injection, schedule: Q01DX007 (ip), vehicle: saline) was 60 % of control; the T/C (dose: 3.75 mg/kg/injection, schedule: Q01DX007 (ip), vehicle: saline) was 64 % of control; the T/C (dose: 7.5 mg/kg/injection, schedule: Q01DX007 (ip), vehicle: saline) was 75 % of control.
As to `O=C(NP(=O)(N1CC1)N1CC1)OCc1ccccc1`, the T/C by setting is: (dose: 1.5 mg/kg/injection, schedule: Q#A X014 (ip), vehicle: saline) 82 % of control; (dose: 3.0 mg/kg/injection, schedule: Q#A X014 (ip), vehicle: saline) 81 % of control; (dose: 6.0 mg/kg/injection, schedule: Q#A X014 (ip), vehicle: saline) 36 % of control; (dose: 12.0 mg/kg/injection, schedule: Q#A X014 (ip), vehicle: saline) 1 % of control.
`O=CC1CO1` (configuration not stated): the T/C under setting [1] is 123 % of control.
For `CCCOc1ccc2c(c1)CC[C@@H]1[C@@H]2CC[C@@]2(C)[C@H]1CC[C@]2(C)O`, the T/C by setting is: (dose: 0.5 mg/kg/injection, schedule: Q#A X014 (sc), vehicle: steriod suspending solution) 110 % of control; (dose: 5.0 mg/kg/injection, schedule: Q#A X014 (sc), vehicle: steriod suspending solution) 63 % of control; (dose: 50.0 mg/kg/injection, schedule: Q#A X014 (sc), vehicle: steriod suspending solution) 84 % of control.
